Results as given in patent US20250312462A1, “PAK1 DEGRADERS AND METHODS OF USE THEREOF” (INSTITUTE FOR CANCER RESEARCH D/B/A THE RESEARCH INSTITUTE …, priority 2022, published 2025).

What was measured:
Assay in all cases: KINOMEscan
Conditions in all cases: read-out: Percent Control
YES = YES (Homo sapiens, UniProt P07947)
Description: (§1) The kinase engagement assay (KINOMEscan®) was performed by DiscoverX assessing binding abilities toward a set of kinases.

PRKD3 = PRKD3 (Homo sapiens, UniProt O94806)
Description: as §1

RIPK4 = RIPK4 (Homo sapiens, UniProt P57078)
Description: as §1

SNARK = SNARK (Homo sapiens, UniProt Q9H093)
Description: as §1

SBK1 = SBK1 (Homo sapiens, UniProt Q52WX2)
Description: as §1

SRMS = SRMS (Homo sapiens, UniProt Q9H3Y6)
Description: as §1

BMPR1B = BMPR1B (Homo sapiens, UniProt O00238)
Description: as §1

EPHB1 = EPHB1 (Homo sapiens, UniProt P54762)
Description: as §1

DYRK1A = DYRK1A (Homo sapiens, UniProt Q13627)
Description: as §1

STK16 = STK16 (Homo sapiens, UniProt O75716)
Description: as §1

LRRK2(G2019S) = LRRK2(G2019S) (Homo sapiens, UniProt Q5S007, G2019S)
Description: as §1

CAMKK2 = CAMKK2 (Homo sapiens, UniProt Q96RR4)
Description: as §1

CAMK1G = CAMK1G (Homo sapiens, UniProt Q96NX5)
Description: as §1

FGFR2 = FGFR2 (Homo sapiens, UniProt P21802)
Description: as §1

INSR = INSR (Homo sapiens, UniProt P06213)
Description: as §1

DDR1 = DDR1 (Homo sapiens, UniProt Q08345)
Description: as §1

MARK2 = MARK2 (Homo sapiens, UniProt Q7KZI7)
Description: as §1

VPS34 = VPS34 (Homo sapiens, UniProt Q8NEB9)
Description: as §1

FLT1 = FLT1 (Homo sapiens, UniProt P17948)
Description: as §1

ERBB4 = ERBB4 (Homo sapiens, UniProt Q15303)
Description: as §1

EIF2AK1 = EIF2AK1 (Homo sapiens, UniProt Q9BQI3)
Description: as §1

TTK = TTK (Homo sapiens, UniProt P33981)
Description: as §1

CIT = CIT (Homo sapiens, UniProt O14578)
Description: as §1

CSNK1G1 = CSNK1G1 (Homo sapiens, UniProt Q9HCP0)
Description: as §1

TLK1 = TLK1 (Homo sapiens, UniProt Q9UKI8)
Description: as §1

TLK2 = TLK2 (Homo sapiens, UniProt Q86UE8)
Description: as §1

PDGFRB = PDGFRB (Homo sapiens, UniProt P09619)
Description: as §1

[1] = target: JAK1(JH1domain-catalytic) (Homo sapiens, UniProt P23458)
Description: as §1

JNK1 = JNK1 (Homo sapiens, UniProt P45983)
Description: as §1

CAMK4 = CAMK4 (Homo sapiens, UniProt Q16566)
Description: as §1

STK35 = STK35 (Homo sapiens, UniProt Q8TDR2)
Description: as §1

AAK1 = AAK1 (Homo sapiens, UniProt Q2M2I8)
Description: as §1

MKK7 = MKK7 (Homo sapiens, UniProt O14733)
Description: as §1

EPHA5 = EPHA5 (Homo sapiens, UniProt P54756)
Description: as §1

CSK = CSK (Homo sapiens, UniProt P41240)
Description: as §1

ITK = ITK (Homo sapiens, UniProt Q08881)
Description: as §1

CTK = CTK (Homo sapiens, UniProt P42679)
Description: as §1

PRKX = PRKX (Homo sapiens, UniProt P51817)
Description: as §1

TIE1 = TIE1 (Homo sapiens, UniProt P35590)
Description: as §1

Sequence of TLK1 (Q9UKI8 whole entry): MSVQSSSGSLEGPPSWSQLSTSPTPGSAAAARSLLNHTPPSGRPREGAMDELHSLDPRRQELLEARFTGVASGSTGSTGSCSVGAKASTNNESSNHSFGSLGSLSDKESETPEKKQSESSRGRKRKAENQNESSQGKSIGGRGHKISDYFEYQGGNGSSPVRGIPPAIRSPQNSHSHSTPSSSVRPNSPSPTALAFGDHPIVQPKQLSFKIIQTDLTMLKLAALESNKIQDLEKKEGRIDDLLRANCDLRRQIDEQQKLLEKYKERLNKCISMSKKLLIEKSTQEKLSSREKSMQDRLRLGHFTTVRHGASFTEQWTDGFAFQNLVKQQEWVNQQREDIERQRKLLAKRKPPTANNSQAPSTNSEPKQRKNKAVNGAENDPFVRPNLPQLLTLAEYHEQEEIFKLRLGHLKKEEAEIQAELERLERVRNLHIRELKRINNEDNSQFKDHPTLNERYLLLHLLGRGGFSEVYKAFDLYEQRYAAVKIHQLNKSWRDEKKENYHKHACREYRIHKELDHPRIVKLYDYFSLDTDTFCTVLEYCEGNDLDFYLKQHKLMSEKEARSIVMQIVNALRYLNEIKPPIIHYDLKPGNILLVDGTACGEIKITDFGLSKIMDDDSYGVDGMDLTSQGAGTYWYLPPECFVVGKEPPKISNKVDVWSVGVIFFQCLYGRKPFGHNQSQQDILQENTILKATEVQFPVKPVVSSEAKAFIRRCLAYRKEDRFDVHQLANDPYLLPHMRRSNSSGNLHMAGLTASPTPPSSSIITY
Sequence of DDR1 (Q08345 19-913): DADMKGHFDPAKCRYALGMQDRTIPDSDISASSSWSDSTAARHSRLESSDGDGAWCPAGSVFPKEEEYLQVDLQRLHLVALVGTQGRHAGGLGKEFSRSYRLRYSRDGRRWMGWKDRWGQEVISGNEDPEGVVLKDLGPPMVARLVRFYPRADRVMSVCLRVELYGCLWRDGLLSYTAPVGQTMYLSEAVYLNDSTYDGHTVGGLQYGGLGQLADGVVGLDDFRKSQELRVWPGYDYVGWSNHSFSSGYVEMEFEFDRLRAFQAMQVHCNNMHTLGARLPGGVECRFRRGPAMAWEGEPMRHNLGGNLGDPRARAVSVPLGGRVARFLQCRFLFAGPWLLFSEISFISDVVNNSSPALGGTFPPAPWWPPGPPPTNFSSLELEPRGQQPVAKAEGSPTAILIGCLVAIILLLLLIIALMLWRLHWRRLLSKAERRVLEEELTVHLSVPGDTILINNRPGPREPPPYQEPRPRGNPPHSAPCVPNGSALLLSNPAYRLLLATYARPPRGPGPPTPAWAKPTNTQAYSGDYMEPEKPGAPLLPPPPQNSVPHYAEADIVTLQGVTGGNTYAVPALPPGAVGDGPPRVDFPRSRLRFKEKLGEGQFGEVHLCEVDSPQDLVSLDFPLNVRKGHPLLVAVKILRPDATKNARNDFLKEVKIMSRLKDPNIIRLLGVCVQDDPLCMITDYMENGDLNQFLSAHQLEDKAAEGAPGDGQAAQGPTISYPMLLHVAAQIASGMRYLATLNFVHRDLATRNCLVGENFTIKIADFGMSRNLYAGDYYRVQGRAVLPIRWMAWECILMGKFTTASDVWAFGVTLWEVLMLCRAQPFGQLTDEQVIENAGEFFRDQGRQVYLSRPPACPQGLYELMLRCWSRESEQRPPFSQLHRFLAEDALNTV
Sequence of STK16 (O75716 whole entry): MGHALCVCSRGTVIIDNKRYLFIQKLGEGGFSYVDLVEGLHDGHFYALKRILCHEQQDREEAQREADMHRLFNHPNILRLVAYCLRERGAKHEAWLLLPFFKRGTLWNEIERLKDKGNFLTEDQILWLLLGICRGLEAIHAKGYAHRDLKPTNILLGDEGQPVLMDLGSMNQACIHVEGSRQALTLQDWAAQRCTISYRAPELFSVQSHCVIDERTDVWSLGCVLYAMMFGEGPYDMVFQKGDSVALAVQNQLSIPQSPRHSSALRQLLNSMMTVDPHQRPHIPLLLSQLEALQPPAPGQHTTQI
Sequence of CSNK1G1 (Q9HCP0 whole entry): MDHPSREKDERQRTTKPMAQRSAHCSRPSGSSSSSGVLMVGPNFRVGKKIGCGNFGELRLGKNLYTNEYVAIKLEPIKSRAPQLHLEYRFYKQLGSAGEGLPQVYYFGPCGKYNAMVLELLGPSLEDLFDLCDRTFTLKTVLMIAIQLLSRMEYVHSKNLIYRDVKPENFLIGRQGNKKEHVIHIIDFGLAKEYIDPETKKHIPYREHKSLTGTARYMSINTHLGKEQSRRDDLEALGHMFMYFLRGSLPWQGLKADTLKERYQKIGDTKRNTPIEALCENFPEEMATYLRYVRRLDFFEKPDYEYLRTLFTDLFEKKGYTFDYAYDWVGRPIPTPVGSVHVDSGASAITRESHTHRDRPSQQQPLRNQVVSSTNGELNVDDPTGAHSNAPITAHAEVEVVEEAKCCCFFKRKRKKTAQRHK
Sequence of PRKD3 (O94806 whole entry): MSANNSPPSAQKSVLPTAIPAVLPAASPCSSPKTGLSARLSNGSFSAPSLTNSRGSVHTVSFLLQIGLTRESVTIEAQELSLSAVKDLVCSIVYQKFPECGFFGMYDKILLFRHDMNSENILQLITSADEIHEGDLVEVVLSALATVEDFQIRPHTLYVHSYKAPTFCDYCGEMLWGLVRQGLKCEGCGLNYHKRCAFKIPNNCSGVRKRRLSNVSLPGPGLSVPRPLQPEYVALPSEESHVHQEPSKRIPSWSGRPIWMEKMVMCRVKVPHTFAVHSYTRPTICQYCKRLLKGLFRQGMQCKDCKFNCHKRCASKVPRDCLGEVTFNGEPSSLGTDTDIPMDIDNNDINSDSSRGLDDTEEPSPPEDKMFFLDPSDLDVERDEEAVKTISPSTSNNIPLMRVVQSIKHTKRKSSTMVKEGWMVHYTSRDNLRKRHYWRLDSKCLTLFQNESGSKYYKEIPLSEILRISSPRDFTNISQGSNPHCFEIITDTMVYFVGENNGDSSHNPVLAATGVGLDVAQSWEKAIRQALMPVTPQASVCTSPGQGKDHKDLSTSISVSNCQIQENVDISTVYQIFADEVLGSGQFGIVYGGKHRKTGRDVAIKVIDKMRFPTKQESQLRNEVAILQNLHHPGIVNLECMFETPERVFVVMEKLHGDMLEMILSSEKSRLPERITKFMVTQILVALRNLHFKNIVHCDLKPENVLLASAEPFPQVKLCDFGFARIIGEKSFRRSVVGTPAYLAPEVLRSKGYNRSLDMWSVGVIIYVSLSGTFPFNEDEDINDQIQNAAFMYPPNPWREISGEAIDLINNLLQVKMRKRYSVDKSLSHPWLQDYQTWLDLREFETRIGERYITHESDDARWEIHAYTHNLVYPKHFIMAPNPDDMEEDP
Sequence of CTK (P42679 whole entry): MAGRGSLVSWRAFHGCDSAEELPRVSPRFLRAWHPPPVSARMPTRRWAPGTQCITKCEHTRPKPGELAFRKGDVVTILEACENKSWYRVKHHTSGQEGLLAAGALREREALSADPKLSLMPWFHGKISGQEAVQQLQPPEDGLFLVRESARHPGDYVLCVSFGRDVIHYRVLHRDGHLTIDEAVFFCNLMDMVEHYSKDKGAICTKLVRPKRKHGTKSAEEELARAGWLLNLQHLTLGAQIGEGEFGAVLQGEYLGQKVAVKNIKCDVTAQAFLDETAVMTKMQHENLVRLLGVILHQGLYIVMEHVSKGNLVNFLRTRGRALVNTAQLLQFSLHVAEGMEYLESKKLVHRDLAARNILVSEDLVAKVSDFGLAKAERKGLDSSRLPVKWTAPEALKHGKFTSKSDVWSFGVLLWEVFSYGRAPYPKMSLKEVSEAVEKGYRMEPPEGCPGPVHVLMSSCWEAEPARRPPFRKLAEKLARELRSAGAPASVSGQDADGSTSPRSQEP
Sequence of TTK (P33981 whole entry): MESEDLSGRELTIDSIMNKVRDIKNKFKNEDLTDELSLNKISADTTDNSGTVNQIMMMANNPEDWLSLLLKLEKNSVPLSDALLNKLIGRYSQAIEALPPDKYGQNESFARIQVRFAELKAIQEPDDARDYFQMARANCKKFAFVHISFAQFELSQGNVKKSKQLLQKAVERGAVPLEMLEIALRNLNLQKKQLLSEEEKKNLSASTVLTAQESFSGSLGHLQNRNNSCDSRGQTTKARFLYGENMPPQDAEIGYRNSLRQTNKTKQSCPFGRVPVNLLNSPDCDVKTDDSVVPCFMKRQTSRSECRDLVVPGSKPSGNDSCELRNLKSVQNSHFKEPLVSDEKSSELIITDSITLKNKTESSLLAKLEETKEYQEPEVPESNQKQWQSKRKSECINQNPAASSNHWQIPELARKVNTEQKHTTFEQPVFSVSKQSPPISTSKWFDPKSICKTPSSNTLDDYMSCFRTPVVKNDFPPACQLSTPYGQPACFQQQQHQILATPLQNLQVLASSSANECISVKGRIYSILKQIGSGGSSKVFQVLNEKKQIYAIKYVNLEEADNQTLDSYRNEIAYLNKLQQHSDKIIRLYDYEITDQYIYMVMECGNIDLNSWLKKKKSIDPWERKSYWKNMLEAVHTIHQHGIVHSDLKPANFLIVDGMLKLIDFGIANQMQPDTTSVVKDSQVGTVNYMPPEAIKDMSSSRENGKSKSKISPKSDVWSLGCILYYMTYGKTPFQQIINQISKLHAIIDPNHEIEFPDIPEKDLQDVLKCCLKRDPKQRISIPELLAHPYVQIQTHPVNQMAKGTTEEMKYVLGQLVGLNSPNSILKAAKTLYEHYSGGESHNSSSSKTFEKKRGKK
Sequence of JAK1(JH1domain-catalytic) (P23458 875-1153 limits assumed): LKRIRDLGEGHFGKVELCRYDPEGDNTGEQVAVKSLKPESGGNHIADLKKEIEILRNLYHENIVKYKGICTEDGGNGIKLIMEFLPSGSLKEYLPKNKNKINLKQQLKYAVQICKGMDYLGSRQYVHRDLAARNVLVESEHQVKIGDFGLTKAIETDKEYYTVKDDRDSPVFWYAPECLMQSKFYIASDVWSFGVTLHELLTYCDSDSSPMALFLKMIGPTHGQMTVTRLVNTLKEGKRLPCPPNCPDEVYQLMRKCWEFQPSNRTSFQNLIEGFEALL

SMILES: O=C1CCC(N2C(=O)c3cccc(NCCCCCCCCNC(=O)N4CC[C@H](NC5=Nc6cc(F)ccc6N(CC(F)F)c6ccc(Cl)cc65)C4)c3C2=O)C(=O)N1 (stereo partly drawn) [BJG-05-039, (3S)-3-((2-Chloro-5-(2,2-difluoroethyl)-8-fluoro-5H-dibenzo[b,e][1,4]diazepin-11-yl)amino)-N-(8-((2-(2,6-dioxopiperidin-3-yl)-1,3-dioxoisoindolin-4-yl)amino)octyl)pyrrolidine-1-carboxamide]
- remaining binding at 10 µM (YES): 79%
- remaining binding at 10 µM (PRKD3): 37%
- remaining binding at 10 µM (RIPK4): 98%
- remaining binding at 10 µM (SNARK): 96%
- remaining binding at 10 µM (SBK1): 82%
- remaining binding at 10 µM (SRMS): 97%
- remaining binding at 10 µM (BMPR1B): 85%
- remaining binding at 10 µM (EPHB1): 98%
- remaining binding at 10 µM (DYRK1A): 100%
- remaining binding at 10 µM (STK16): 62%
- remaining binding at 10 µM (LRRK2(G2019S)): 96%
- remaining binding at 10 µM (CAMKK2): 46%
- remaining binding at 10 µM (CAMK1G): 63%
- remaining binding at 10 µM (FGFR2): 77%
- remaining binding at 10 µM (INSR): 93%
- remaining binding at 10 µM (DDR1): 52%
- remaining binding at 10 µM (MARK2): 38%
- remaining binding at 10 µM (VPS34): 100%
- remaining binding at 10 µM (FLT1): 84%
- remaining binding at 10 µM (ERBB4): 97%
- remaining binding at 10 µM (EIF2AK1): 98%
- remaining binding at 10 µM (TTK): 55%
- remaining binding at 10 µM (CIT): 94%
- remaining binding at 10 µM (CSNK1G1): 52%
- remaining binding at 10 µM (TLK1): 46%
- remaining binding at 10 µM (TLK2): 80%
- remaining binding at 10 µM (PDGFRB): 86%
- remaining binding at 10 µM [1]: 42%
- remaining binding at 10 µM (JNK1): 83%
- remaining binding at 10 µM (CAMK4): 74%
- remaining binding at 10 µM (STK35): 83%
- remaining binding at 10 µM (AAK1): 48%
- remaining binding at 10 µM (MKK7): 100%
- remaining binding at 10 µM (EPHA5): 99%
- remaining binding at 10 µM (CSK): 74%
- remaining binding at 10 µM (ITK): 91%
- remaining binding at 10 µM (CTK): 89%
- remaining binding at 10 µM (PRKX): 48%
- remaining binding at 10 µM (TIE1): 62%
